Converted amounts (≈) assume the structure as drawn. Read-outs that look alike come from different tables or passages of the source.
Legend:
Assay type in all cases: cell-based
S. uberis ATCC 19436 [1] = assay: MIC by broth microdilution, S. uberis; conditions: Streptococcus uberis
Summary of the method: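 This broth microdilution assay used S. uberis ATCC 19436 in Todd Hewitt Broth, with zinc sulphate heptahydrate added where required to a final 50 μM. Inhibitor concentration ranges came from two-fold serial dilutions in 96-well flat bottom plates at 200 μl. Approximately 5×10^5 cfu/mL cells were incubated for 24 h at 37° C. and 200 rpm. Wells were then read at OD600 on a Varioskan Flash reader.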

S. aureus ATCC 6538 [2] = assay: MIC by broth microdilution, S. aureus; conditions: Staphylococcus aureus
Summary of the method: (§1)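 Media: TSB or CAMHB for S. aureus, LB or CAMHB for E. coli, with zinc sulphate to 50 μM final where required. Cells at ~5×10^5 cfu/mL met two-fold compound series; growth was scored by OD600 after 24 h shaking at 37° C.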

E. coli ATCC 10596 = assay: MIC by broth microdilution, E. coli; conditions: Escherichia coli
Summary of the method: as §1

S. uberis ATCC 19436 [3] = assay: MBC by Miles-Misra drop-plate method, S. uberis; conditions: Streptococcus uberis
S. aureus ATCC 6538 [4] = assay: MBC by Miles-Misra drop-plate method, S. aureus; conditions: Staphylococcus aureus
Summary of the method: (§2)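 MBC measured as cell viability after compound challenge by Miles-Misra drop plating. MIC: broth microdilution at ~5×10^5 cfu/mL final (S. aureus: TSB, CAMHB; E. coli: LB, CAMHB; optional 50 μM zinc sulphate), 24 h at 37° C, 200 rpm, lowest concentration without growth by OD600; biological triplicate.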

E. coli ATCC 10536 = assay: MBC by Miles-Misra drop-plate method, E. coli; conditions: Escherichia coli
Summary of the method: as §2

[5] = ATCC19436, No Zinc, read-out: S. uberis ATCC 19436 MIC
[6] = ATCC19436, Zinc (50 μM), read-out: S. uberis ATCC 19436 MIC
[7] = ATCC6538, No Zinc, read-out: S. aureus ATCC 6538 MIC
[8] = ATCC6538, Zinc (50 μM), read-out: S. aureus ATCC 6538 MIC
[9] = ATCC 10536 / ATCC 10596, No Zinc, read-out: E. coli ATCC 10536 MIC
[10] = ATCC 10536 / ATCC 10596, Zinc (50 μM), read-out: E. coli ATCC 10536 MIC
[11] = ATCC19436, No Zinc, read-out: S. uberis ATCC 19436 MBC
[12] = ATCC19436, Zinc (50 μM), read-out: S. uberis ATCC 19436 MBC
[13] = ATCC6538, No Zinc, read-out: S. aureus ATCC 6538 MBC
[14] = ATCC6538, Zinc (50 μM), read-out: S. aureus ATCC 6538 MBC
[15] = ATCC10536, No Zinc, read-out: E. coli ATCC 10536 MBC
[16] = ATCC10536, Zinc (50 μM), read-out: E. coli ATCC 10536 MBC

Row | Compound | MIC (S. uberis ATCC 19436 [1]; [5]) [µg/mL] | MIC (S. uberis ATCC 19436 [1]; [6]) [µg/mL] | MIC (S. aureus ATCC 6538 [2]; [7]) [µg/mL] | MIC (S. aureus ATCC 6538 [2]; [8]) [µg/mL] | MIC (E. coli ATCC 10596; [9]) [µg/mL] | MIC (E. coli ATCC 10596; [10]) [µg/mL] | MBC (S. uberis ATCC 19436 [3]; [11]) [µg/mL] | MBC (S. uberis ATCC 19436 [3]; [12]) [µg/mL] | MBC (S. aureus ATCC 6538 [4]; [13]) [µg/mL] | MBC (S. aureus ATCC 6538 [4]; [14]) [µg/mL] | MBC (E. coli ATCC 10536; [15]) [µg/mL] | MBC (E. coli ATCC 10536; [16]) [µg/mL] | also measured
1 | O=C(CNCc1ccc2cccc(NS(=O)(=O)c3ccc(C(F)(F)F)cc3)c2n1)NCCN1CCCCC1 [ZDR269, N-(2-(Piperidin-1-yl)ethyl)-2-(((8-((4-(trifluoromethyl)phenyl)sulfonamido)quinolin-2-yl)methyl)amino)acetamide di-trifluoroacetate] | – | – | – | – | – | – | – | – | – | – | – | – | MIC (S. uberis ATCC 19436 [1]; ATCC19436, read-out: S. uberis ATCC 19436 MIC, No Zinc): 4 µg/mL (≈ 7.28 µM); MIC (S. uberis ATCC 19436 [1]; ATCC19436, read-out: S. uberis ATCC 19436 MIC, Zinc (50 μM)): 8 µg/mL (≈ 14.6 µM); MIC (S. aureus ATCC 6538 [2]; ATCC6538, read-out: S. aureus ATCC 6538 MIC, No Zinc): 32 µg/mL (≈ 58.2 µM); MIC (S. aureus ATCC 6538 [2]; ATCC6538, read-out: S. aureus ATCC 6538 MIC, Zinc (50 μM)): 64 µg/mL (≈ 116 µM); MIC (E. coli ATCC 10596; ATCC 10536 / ATCC 10596, read-out: E. coli ATCC 10536 MIC, No Zinc): 64 µg/mL (≈ 116 µM); MIC (E. coli ATCC 10596; ATCC 10536 / ATCC 10596, read-out: E. coli ATCC 10536 MIC, Zinc (50 μM)): 64 µg/mL (≈ 116 µM); MBC (S. uberis ATCC 19436 [3]; ATCC19436, read-out: S. uberis ATCC 19436 MBC, No Zinc): 4 µg/mL (≈ 7.28 µM); MBC (S. uberis ATCC 19436 [3]; ATCC19436, read-out: S. uberis ATCC 19436 MBC, Zinc (50 μM)): 16 µg/mL (≈ 29.1 µM); MBC (S. aureus ATCC 6538 [4]; ATCC6538, read-out: S. aureus ATCC 6538 MBC, No Zinc): 64 µg/mL (≈ 116 µM); MBC (S. aureus ATCC 6538 [4]; ATCC6538, read-out: S. aureus ATCC 6538 MBC, Zinc (50 μM)): 128 µg/mL (≈ 233 µM); MBC (E. coli ATCC 10536; ATCC10536, read-out: E. coli ATCC 10536 MBC, No Zinc): 64 µg/mL (≈ 116 µM); MBC (E. coli ATCC 10536; ATCC10536, read-out: E. coli ATCC 10536 MBC, Zinc (50 μM)): 64 µg/mL (≈ 116 µM)
2 | O=S(=O)(Nc1cccc2ccc(CNC(CO)(CO)CO)nc12)c1ccc(C(F)(F)F)cc1 [ZDR102, N-(2-(((1,3-Dihydroxy-2-(hydroxymethyl)propan-2-yl)amino)methyl)quinolin-8-yl)-4-(trifluoromethyl)benzenesulfonamide] | 32 (≈ 65.9 µM) | 16 (≈ 33 µM) | 32 (≈ 65.9 µM) | 16 (≈ 33 µM) | 256 (≈ 527 µM) | 64 (≈ 132 µM) | 32 (≈ 65.9 µM) | 16 (≈ 33 µM) | 128 (≈ 264 µM) | 32 (≈ 65.9 µM) | 256 (≈ 527 µM) | > 256 | –
3 | N/N=C/c1ccc2cccc(NS(=O)(=O)c3ccc(C(F)(F)F)cc3)c2n1 [ZDR127, (E)-N-(2-(Hydrazineylidenemethyl)quinolin-8-yl)-4-(trifluoromethyl)benzenesulfonamide] | > 256 | 1 (≈ 2.54 µM) | 16 (≈ 40.6 µM) | 16 (≈ 40.6 µM) | > 256 | > 256 | > 256 | 2 (≈ 5.07 µM) | > 256 | > 256 | > 256 | > 256 | –
4 | O=S(=O)(Nc1cccc2ccc(/C=N/NC(=S)NCCN3CCOCC3)nc12)c1ccc(C(F)(F)F)cc1 [ZDR119, (E)-N-(2-Morpholinoethyl)-2-((8-((4-(trifluoromethyl)phenyl)sulfonamido)quinolin-2-yl)methylene)hydrazine-1-carbothioamide] | 4 (≈ 7.06 µM) | 0.125 (≈ 0.221 µM) | 4 (≈ 7.06 µM) | 4 (≈ 7.06 µM) | > 256 | > 256 | 16 (≈ 28.2 µM) | 1 (≈ 1.76 µM) | > 256 | 32 (≈ 56.5 µM) | > 256 | > 256 | –
5 | O=S(=O)(Nc1cccc2ccc(CNCCN3CCOCC3)nc12)c1ccc(C(F)(F)F)cc1 [ZDR112, N-(2-(((2-Morpholinoethyl)amino)methyl)quinolin-8-yl)-4-(trifluoromethyl)benzenesulfonamide] | 64 (≈ 129 µM) | 1 (≈ 2.02 µM) | 16 (≈ 32.4 µM) | 32 (≈ 64.7 µM) | > 256 | > 256 | 64 (≈ 129 µM) | 2 (≈ 4.04 µM) | > 256 | 256 (≈ 518 µM) | 128 (≈ 259 µM) | > 256 | –
